Assays:
[1] = tested on: HIV coding for mutant reverse transcriptase K103N/Y181C; assay: ELISA (p24) assay of HIV replication in C8166 cell culture, K103N/Y181C virus; format: cell-based, HIV-1; conditions: Human immunodeficiency virus 1, C8166, 72 h, read-out: EC50 K103N/Y181C
Description: (§1) Compounds of the invention were tested for their ability to inhibit HIV replication in cell culture in a 96-well plate assay. Complete RPMI 1640, consisting of RPMI 1640+10% fetal bovine serum, 10 μg/ml gentamycin and 10 μM β-mercaptoethanol was used for dilution of the compound as well as cell growth medium. The T lymphocyte cell line C8166 was infected at a multiplicity of infection of 0.001 with viruses coding for wild-type and mutant reverse transcriptase. Cells were then incubated for three days in the presence of serial dilutions of the compounds of the invention. The supernatant was pooled from eight replica wells and the concentration of extracellular p24 was determined using a commercially available HIV-1 p24 antigen assay kit (Beckman-Coulter®). The level of inhibition (% inhibition) was calculated with the following equation: [formula]

HIV-1 RT K103N/L100I = molecular target: T1, HIV-1 RT K103N/L100I (Human immunodeficiency virus type 1 group M subtype B, UniProt P03366, K702N/L699I); assay: Reverse transcriptase (RT) assay, K103N/L100I mutant; format: biochemical
T1 construct: an HIV RT clone pKRT2 containing only the RT p66 gene regulated by the lac operon/trc promoter; made in house; host or cells: E. coli JM109, vector pKK233-2
How it was run: (§2)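 First, RT mutants were generated by site-directed mutagenesis of the BH10 p66 gene, expressed in E. coli and purified as p66/p51 heterodimer. Then compounds were tested for inhibition of DNA synthesis on biotinylated oligo d(G)-primed poly r(C), with 3H-dGTP supplying label.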

HIV-1 RT wild-type (WT) = molecular target: T2, HIV-1 RT wild-type (WT) (Human immunodeficiency virus type 1 group M subtype B, UniProt P03366); assay: Reverse transcriptase (RT) assay, wild-type enzyme; format: biochemical
T2 construct: an HIV RT clone pKRT2 containing only the RT p66 gene regulated by the lac operon/trc promoter; made in house; host or cells: E. coli JM109, vector pKK233-2

HIV-1 RT V106A = molecular target: T3, HIV-1 RT V106A (Human immunodeficiency virus type 1 group M subtype B, UniProt P03366, V705A); assay: Reverse transcriptase (RT) assay, V106A mutant; format: biochemical
T3 construct: an HIV RT clone pKRT2 containing only the RT p66 gene regulated by the lac operon/trc promoter; made in house; host or cells: E. coli JM109, vector pKK233-2
How it was run: as §2

HIV-1 RT K103N/P225H = molecular target: T4, HIV-1 RT K103N/P225H (Human immunodeficiency virus type 1 group M subtype B, UniProt P03366, K702N/P824H); assay: Reverse transcriptase (RT) assay, K103N/P225H mutant; format: biochemical
T4 construct: an HIV RT clone pKRT2 containing only the RT p66 gene regulated by the lac operon/trc promoter; made in house; host or cells: E. coli JM109, vector pKK233-2
How it was run: as §2

[2] = tested on: HIV coding for mutant reverse transcriptase K103N/L100I; assay: ELISA (p24) assay of HIV replication in C8166 cell culture, K103N/L100I virus; format: cell-based, HIV-1; conditions: Human immunodeficiency virus 1, C8166, 72 h, read-out: EC50 K103N/L100I
Description: as §1

HIV-1 RT K103N/Y181C = molecular target: T5, HIV-1 RT K103N/Y181C (Human immunodeficiency virus type 1 group M subtype B, UniProt P03366, K702N/Y780C); assay: Reverse transcriptase (RT) assay, K103N/Y181C mutant; format: biochemical
T5 construct: an HIV RT clone pKRT2 containing only the RT p66 gene regulated by the lac operon/trc promoter; made in house; host or cells: E. coli JM109, vector pKK233-2
How it was run: as §2

HIV-1 RT K103N = molecular target: T6, HIV-1 RT K103N (Human immunodeficiency virus type 1 group M subtype B, UniProt P03366, K702N); assay: Reverse transcriptase (RT) assay, K103N mutant; format: biochemical
T6 construct: an HIV RT clone pKRT2 containing only the RT p66 gene regulated by the lac operon/trc promoter; made in house; host or cells: E. coli JM109, vector pKK233-2
How it was run: as §2

HIV-1 RT K103N/V108I = molecular target: T7, HIV-1 RT K103N/V108I (Human immunodeficiency virus type 1 group M subtype B, UniProt P03366, K702N/V707I); assay: Reverse transcriptase (RT) assay, K103N/V108I mutant; format: biochemical
T7 construct: an HIV RT clone pKRT2 containing only the RT p66 gene regulated by the lac operon/trc promoter; made in house; host or cells: E. coli JM109, vector pKK233-2
How it was run: as §2

CCN1c2ncc(CCOc3cc[n+]([O-])c4ccccc34)cc2C(=O)N(C)c2cccnc21 [compound 21, 5,11-Dihydro-11-ethyl-5-methyl-8-{2-{(1-oxido-4-quinolinyl)oxy}ethyl}-6H-dipyrido[3,2-b:2′,3′-e][1,4]diazepin-6-one]
EC50 [1]: 4.3 nM
IC50 (HIV-1 RT K103N/L100I): 168 nM
IC50 (HIV-1 RT wild-type (WT)): 17 nM
IC50 (HIV-1 RT V106A): 1110 nM
IC50 (HIV-1 RT K103N/P225H): 40 nM
EC50 [2]: 5.9 nM
IC50 (HIV-1 RT K103N/Y181C): 95 nM
IC50 (HIV-1 RT K103N): 44 nM
IC50 (HIV-1 RT K103N/V108I): 120 nM

CCN1c2ncc(CCOc3cc[n+]([O-])c4ccccc34)cc2C(=O)N(C)c2ccc(Cl)nc21 [compound 17, 2-Chloro-5,11-dihydro-11-ethyl-5-methyl-8-{2-{(1-oxido-4-quinolinyl)oxy}-ethyl}-6H-dipyrido[3,2-b:2′,3′-e][1,4]diazepin-6-one]
EC50 [1]: 2.3 nM
IC50 (HIV-1 RT K103N/L100I): 40 nM
IC50 (HIV-1 RT wild-type (WT)): 14 nM
IC50 (HIV-1 RT V106A): 319 nM
IC50 (HIV-1 RT K103N/P225H): 23 nM
EC50 [2]: 1.2 nM
IC50 (HIV-1 RT K103N/Y181C): 48 nM
IC50 (HIV-1 RT K103N): 25 nM
IC50 (HIV-1 RT K103N/V108I): 83 nM

CCN1c2ncc(CCOc3cc[n+]([O-])c4ccccc34)cc2C(=O)N(C)c2ccc(F)nc21 [compound 11, 5,11-Dihydro-11-ethyl-2-fluoro-5-methyl-8-{2-{(1-oxido-4-quinolinyl)oxy}-ethyl}-6H-dipyrido[3,2-b:2′,3′-e][1,4]diazepin-6-one]
EC50 [1]: 7.5 nM
IC50 (HIV-1 RT K103N/L100I): 102 nM
IC50 (HIV-1 RT wild-type (WT)): 9.5 nM
IC50 (HIV-1 RT V106A): 336 nM
IC50 (HIV-1 RT K103N/P225H): 15 nM
EC50 [2]: 3.2 nM
IC50 (HIV-1 RT K103N/Y181C): 55 nM
IC50 (HIV-1 RT K103N): 18 nM
IC50 (HIV-1 RT K103N/V108I): 55 nM
